For assay [1], the system named is α4β7 integrin-positive cells. Put plainly: Intraperitoneal Delayed Type Hypersensitivity (IP-DTH) Response, ovalbumin challenge. Type of assay: in vivo. As to conditions: 80 mg/kg, sc, qd × 2; mice, 48 hours after antigen challenge. The text has this:
Intraperitoneal Delayed Type Hypersensitivity (IP-DTH) Response. A Method for Analyzing Effects of Integrin Antagonists In Vivo
Background: Integrin antagonists are meant to interfere with the binding or adhesion of immune cells, such as lymphocytes, monocytes and eosinophils that bear integrin receptors to counter-receptors that exist on endothelial cells in the vasculature. Among those integrin-bearing cells, cells that are positive for α4β7 integrin are found in the mesenteric system and in the gut, and would comprise many of the cells recruited to a peritoneal antigen challenge. One can maximize the number of α4β7 integrin-positive cells recruited by inducing an intraperitoneal delayed type hypersensitivity response to antigen that will recruite antigen-responsive cells from the mesenteric lymph nodes. An inhibitor of α4β7 integrin should prevent the recruitment of these cells to the site of antigen challenge. […]
The cells were stained with fluorochrome-coupled antibody to α4β7 integrin or a primary antibody to α4β7 integrin followed by a secondary fluorochrome-coupled antibody. […] The cells were then transferred to test tubes and maintained at 4° C. until analyzed by flow cytometry to determine numbers of α4β7-postive cells. […]

Assay [2] addresses α4β1 (Homo sapiens, UniProt P05556+P13612). Description: Ramos Cell Adhesion Assay (α4β1 Mediated Adhesion/VCAM-1). As to conditions: Ramos cells on recombinant hVCAM-1; read-out: α4β1 IC50. The arrangement: Ramos cells, (50 μL at 2×10^6/mL) labeled with 5 μM Calcein AM; endogenous in cells; host or cells: Ramos cells. In kind it is cell-based. The procedure, abridged:
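Ramos cells labeled with 5 μM Calcein AM adhered for 1 h at room temperature to wells coated with recombinant human VCAM-1 (4.0 μg/mL, pH 9.0) in presence of compounds. After washing, cells lysed in SDS buffer; fluorescence read at 485/530 nm.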

SMILES strings stand for the structures. pIC50: −log10 of the molar value.

We go through two molecules from US20060223846A1, “Aza-bridged-bicyclic amino acid derivatives as alpha4 integrin antagonists” (priority 2005, published 2006).

Sequence of α4β1 (P13612 34-1032): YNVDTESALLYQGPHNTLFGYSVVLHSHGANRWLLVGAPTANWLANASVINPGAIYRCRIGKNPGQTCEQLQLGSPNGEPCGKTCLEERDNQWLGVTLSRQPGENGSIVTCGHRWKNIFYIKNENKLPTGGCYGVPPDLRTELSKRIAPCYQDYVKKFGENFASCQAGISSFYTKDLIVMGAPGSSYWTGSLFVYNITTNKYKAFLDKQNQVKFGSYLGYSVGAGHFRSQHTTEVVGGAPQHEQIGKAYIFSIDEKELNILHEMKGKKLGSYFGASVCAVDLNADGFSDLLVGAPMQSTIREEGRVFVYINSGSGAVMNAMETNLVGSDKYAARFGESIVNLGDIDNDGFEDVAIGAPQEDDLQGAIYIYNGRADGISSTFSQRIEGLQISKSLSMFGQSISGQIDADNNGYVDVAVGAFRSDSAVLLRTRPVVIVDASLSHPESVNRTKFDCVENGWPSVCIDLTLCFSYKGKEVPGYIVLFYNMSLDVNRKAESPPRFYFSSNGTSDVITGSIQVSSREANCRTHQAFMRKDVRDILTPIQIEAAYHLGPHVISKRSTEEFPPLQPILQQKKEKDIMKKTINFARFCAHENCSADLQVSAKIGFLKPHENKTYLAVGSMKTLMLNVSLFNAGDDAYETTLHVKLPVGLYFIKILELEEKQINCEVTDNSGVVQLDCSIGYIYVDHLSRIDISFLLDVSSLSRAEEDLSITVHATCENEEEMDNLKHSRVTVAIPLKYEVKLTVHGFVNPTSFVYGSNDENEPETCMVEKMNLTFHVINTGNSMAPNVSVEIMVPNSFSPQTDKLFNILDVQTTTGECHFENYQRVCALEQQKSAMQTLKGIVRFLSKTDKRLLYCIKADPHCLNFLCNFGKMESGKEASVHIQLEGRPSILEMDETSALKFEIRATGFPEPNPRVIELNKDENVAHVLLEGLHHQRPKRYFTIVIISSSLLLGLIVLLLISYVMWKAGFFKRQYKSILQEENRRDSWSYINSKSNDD
Sequence of α4β1 (P05556 21-798): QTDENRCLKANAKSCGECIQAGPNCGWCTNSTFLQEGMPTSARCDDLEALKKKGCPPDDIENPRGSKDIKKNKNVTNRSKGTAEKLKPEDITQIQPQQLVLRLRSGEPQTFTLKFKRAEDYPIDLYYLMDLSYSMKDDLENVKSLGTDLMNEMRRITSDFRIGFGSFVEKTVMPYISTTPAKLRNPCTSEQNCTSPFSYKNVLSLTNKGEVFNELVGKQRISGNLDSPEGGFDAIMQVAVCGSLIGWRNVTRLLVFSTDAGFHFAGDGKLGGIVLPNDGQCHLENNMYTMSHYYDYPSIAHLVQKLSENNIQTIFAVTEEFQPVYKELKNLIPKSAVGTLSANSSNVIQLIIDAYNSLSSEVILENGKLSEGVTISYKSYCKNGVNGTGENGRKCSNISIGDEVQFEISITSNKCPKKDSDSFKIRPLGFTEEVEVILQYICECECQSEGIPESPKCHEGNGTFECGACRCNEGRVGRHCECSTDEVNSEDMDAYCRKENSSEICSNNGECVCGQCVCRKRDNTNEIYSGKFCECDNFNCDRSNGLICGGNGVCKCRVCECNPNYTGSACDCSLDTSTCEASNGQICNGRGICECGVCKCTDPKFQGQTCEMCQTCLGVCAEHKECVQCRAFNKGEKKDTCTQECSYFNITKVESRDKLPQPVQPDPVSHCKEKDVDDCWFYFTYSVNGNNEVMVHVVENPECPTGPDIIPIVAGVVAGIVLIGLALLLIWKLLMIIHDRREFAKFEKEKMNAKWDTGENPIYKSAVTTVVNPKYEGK

Take `CC(C)(C)CCN1C2CCC(CC2)[C@H]1C(=O)N[C@@H](Cc1ccc(NC(=O)c2c(Cl)cncc2Cl)cc1)C(=O)O` [Cpd 16, 3-{4-[(3,5-dichloro-pyridine-4-carbonyl)-amino]-phenyl}-2-{[2-(3,3-dimethyl-butyl)-2-aza-bicyclo[2.2.2]octane-3-carbonyl]-amino}-propionic acid]: in assay [1], the “Percent Decrease in recruited α4β7+ cells” value is 56%. In assay [2], the pIC50 (as a rule, −log10 of the IC50, conventionally taken in molar units) was 7.33.

As to `O=C(Nc1ccc(CC(NC(=O)C2C3CCC(CC3)N2C(=O)Cc2ccsc2)C(=O)O)cc1)c1c(Cl)cncc1Cl` (stereo not shown) [Cpd 3], in assay [1], the “Percent Decrease in recruited α4β7+ cells” value came to 20%. The pIC50 in assay [2] was 7.37.
